# How the values were obtained:
# HepG2 = experiment: Neutral red uptake assay on HepG2; format: cell-based; conditions: Homo sapiens; HepG2, 72 h treatment
# Procedure: Based on the results obtained for the RPTEC cell line, the following concentrations of 4b–d were chosen to be applied to neoplastic cell lines: 0.1, 1, 10, 25, 50, and 100 µM. A172, AGS, CaCo-2, HeLa, and HepG2 cancer cell lines were used to perform a neutral red uptake assay. The obtained results were compared with a negative control (cell lines incubated without tested compounds), and half-maximal inhibitory concentration (IC50) values were calculated. Cell lines were plated in 96-well plates at a density of 1 × 10^4 cells/well. After 24 h incubation, which allowed the cells to attach and start to proliferate, the culture media were replaced with 4a–d dissolved in the appropriate medium at concentrations of 1, 10, 50, 100, 150 and 200 µM. […] Negative (1% DMSO in medium) and positive (1 µM staurosporine) controls were also included. Plates were incubated at 37 °C for 24, 48, and 72 h before the neutral red uptake assay. The neutral red uptake assay was performed as described by Repetto et al.. Briefly, the medium from all wells was discarded, the attached cells were washed with 100 µL PBS, and then 100 µL of neutral red working solution in medium (40 µg/mL) was added to each well. The neutral red solution was incubated overnight in the same conditions as the cells and centrifuged before being added to the cells. The plates were incubated for at least 2 h at 37 °C, 5% CO2, in a humidified atmosphere. Next, the neutral red medium was removed, and the cells were washed with 100 µL PBS. A 100 µL quantity of destain solution consisting of 50% ethanol, 1% glacial acetic acid, and deionized water was added to each well. Plates were incubated for 30 min with constant shaking on a horizontal shaker at 37 °C. Absorption was measured at 540 nm excitation. The cells’ viability was calculated by comparing results from experimental sets with negative controls according to the formula: % viability=ODtest substance−ODblind/ODnegative control−ODblind×100
# AGS cells = experiment: Flow cytometry FDA/PI staining, cell viability, AGS; format: cell-based, human
# Procedure: A detailed analysis of potential cytotoxic mechanisms has been performed only for the selected compound (4b) where the IC50 values under 100 µM were detected in the screening NR assay. Flow cytometry was performed on the A172 and AGS cell lines. Cells were incubated with compound 4b at IC50 for 24, 48, and 72 h before analysis. Fluorescein diacetate (FDA) and propidium iodide (PI) were used as indicators for viable and nonviable (necrotic) cells. Most of the events were captured in the first and the fourth quadrant, which represent viable and necrotic cells, respectively. […] Similar results were obtained for the AGS cell line (Figure 8B), where the viability was 60.95%/55.10%/44.99% after the same incubation periods, respectively. Some events occurred in the second quadrant, but it was difficult to unequivocally categorize them into viable or nonviable (apoptotic/necrotic) cell populations, and thus more sensitive dyes, able to distinguish between the types of cell death, were needed.
# Two approaches for flow cytometry were used—FDA/PI staining to determine cell viability and annexin V/PI staining for cell death pathway determination.
# For cell viability determination, cells were plated in 6-well plates at a density of 1 × 10^5 cells/well and incubated for 24 h at 37 °C, 5% CO2 and in a humidified atmosphere. Next, cells were treated with 4b at a concentration calculated as IC50 in neutral red uptake assay. After 24, 48, and 72 h incubation, the cells (either adhered or floating) were collected, centrifuged at 1600 rpm, and washed with PBS. FDA and PI stock solution at a 1 mM concentration were prepared in DMSO and H2O, respectively. After centrifugation and supernatant discarding, cells were stained with FDA at a final concentration of 1 µM prepared in PBS and incubated in the dark. After 15 min, they were centrifuged at 1600 rpm, resuspended in ice-cold PBS, and placed on ice. Samples were stained with 1 µM PI for 2 min before the cytometry evaluation. […]
# AGS cell line = experiment: Comet assay (single-cell gel electrophoresis), AGS; format: cell-based, human
# Procedure: Single-cell gel electrophoresis was performed to assess the potential genotoxic effect on AGS and A172 after incubation with compound 4b at IC50. This method is based on the ability of damaged DNA to migrate out of the cell during electrophoresis. After DNA staining (Hoechst 33342), the characteristic “comet tail” could be observed under the fluorescence microscope. The damages in 100 randomly selected cells were visually classified into five groups according to the length of the “comet tail”. Group 0 consisted of cells without damaged DNA, while group 4 contained cells with maximally long tails. Based on this, a group damage index (DI) was calculated. The genotoxic effect was found in both examined cell lines. […]
# The comet assay was performed according to the method of Singh et al. with slight modifications. […] A total of 100 randomly selected cells were scored, and captured comets were classified based on the comet’s tail length as follows: class 0 contained comets with no damaged DNA; class 1, those with low damage; class 2, those with medium damage; class 3, those with high damage; and class 4, those with very high damage. The damage index (DI) was calculated as follows: DI=0×n0+1×n1+2×n2+3×n3+4×n4, n0,1,2,3,4 —the amount of comets in each class.
smiles,measurement,setting,value
"Cc1nc(-c2ccccc2)nc(Nc2ccc(F)cc2)c1C=Nc1cccc(Cl)c1 [compound 4b, 5-{[(3-chlorophenyl)imino]methyl}-N-(4-fluorophenyl)-6-methyl-2-phenylpyrimidin-4-amine]",IC50,HepG2,> 100 µM
same,"Q1 events (viable cells; viability), FDA/PI","AGS cells; at IC50, 24 h",60.95%
same,"Q1 events (viable cells; viability), FDA/PI","AGS cells; at IC50, 48 h",55.10%
same,"Q1 events (viable cells; viability), FDA/PI","AGS cells; at IC50, 72 h",44.99%
same,DNA damage index,"AGS cell line; at IC50, 24 h",63 arbitrary units
same,DNA damage index,"AGS cell line; at IC50, 48 h",107 arbitrary units
